Assay results reported in patent US6362237B1, “Compounds with progesterone-antagonistic and antiestrogenic action to be used together for female contraception” (Schering Aktiengesellschaft, priority 1994, dated 2002).

Experiments:
guinea pigs = test: Inhibition of implantation in guinea pigs by estrogen antagonists; format: in vivo, guinea pig
[1] = system: normal guinea pigs with a normal cycle; test: Test 3: receptivity inhibition in guinea pigs treated over 2 cycles, mating in the second cycle; format: in vivo, guinea pig; settings: for effectiveness of the single dose given separately: 0.5 mg daily s.c.; for effectiveness of the single dose given separately / effect of lower doses by themselves: alone; for effect of lower doses by themselves: <1.0 mg daily s.c.
Description: The tests were carried out on normal guinea pigs with a normal cycle over a treatment period of 2 cycles. Mating took place in the second cycle.
Doses of Onapristone: 0.1, 0.25, 0.5, 1.0 and 3.0 mg daily s.c.

Structure (SMILES)	implantation in guinea pigs (guinea pigs)	effectiveness of the single dose given separately [1]	effect of lower doses by themselves [1]	pregnancies after treatment ([1]; onapristone alone, high doses, daily s.c.)	normal pregnancies ([1]; tamoxifen alone, 10.0 mg daily s.c., 2 cycles) [%]	inhibition of receptivity ([1]; tamoxifen alone, dosage range 0.1-10.0 mg/animal daily s.c.)
C[C@]12CC[C@@H]3c4ccc(O)cc4C[C@@H](CCCCCCCCC[S+]([O-])CCCC(F)(F)C(F)(F)F)[C@H]3[C@@H]1CC[C@@H]2O (stereo partly drawn) [ICI 182780, 7α-[9-[(4,4,5,5,5-pentafluorpentyl)sulfinyl]nonyl]estra-1,3,5(10)-trien-3,17β-diol]	inhibit implantation					
CN(C)c1ccc([C@H]2C[C@]3(C)[C@@H](CC[C@]3(O)CCCO)[C@@H]3CCC4=CC(=O)CCC4=C32)cc1 [onapristone, 11β-[4-(dimethylamino)phenyl]-17α-hydroxy-17β-(3-hydroxypropyl)-13α-estra-4,9-dien-3one]		only marginally effective	no effect or a marginal effect	occasional pregnancies occurred		
CC/C(=C(\c1ccccc1)c1ccc(OCCN(C)C)cc1)c1ccccc1 [tamoxifen, (Z)-N,N-dimethyl-2-[4-(1,2-diphenyl-1-butenyl)phenoxy]ethanamine]	inhibit implantation	only marginally effective	no effect or a marginal effect		30	no complete inhibition of receptivity could be achieved
